Each structure is given as a SMILES string. The source made the active and inactive calls. The rule behind the calls is not given here.

The subject of data set [1] is Oryctolagus cuniculus. Kind of data set: Average IOP after administration was determined. In kind it is functional.
Data set [2] can be described thus: Time within which only 10% of the drug was degraded. The data set is classed as ADME. The note with it: pH 4.50, room temperature.
Data set [3] deals with Oryctolagus cuniculus. Briefly: Compound was tested for decrease in IOP (in vivo); 18% reduction of the control 21.4+/-0.3 mmHg. The data set is classed as functional.
For data set [4], the system named is Oryctolagus cuniculus. Kind of data set: Compound was tested for decrease in IOP for 2-3 h (in vivo); Significant reduction was observed. The data set is classed as functional, organism-based.

`C=CCc1ccccc1OC/C(CNC(C)C)=N\OC`: the “Average IOP” value in data set [1] was 21.4 mmHg. Moreover, the t0.9 in data set [2] is 75 days. The Activity in data set [3] is reported as 3.8 mmHg.
As to `C=CCc1ccccc1OCC(O)CNC(C)C` (configuration not stated) [ALPRENOLOL], in data set [4], the result was Active. Further, the “Average IOP” value in data set [1] is 20.6 mmHg.
As for `C=CCc1ccccc1OC/C(CNC(C)C)=N\O`, in data set [1], the “Average IOP” value is reported as 21.8 mmHg. The compound further returned a t0.9 in data set [2] of 44 days.
